Test results as given in publication PMC5684418, “Structural remodeling and oligomerization of human cathelicidin on membranes suggest fibril-like structures as active species” (Scientific Reports, 2017).
Ends that are not written are not given here.

Legend:
[1] = Peptide-lipid overlay assay (lipid strips); format: binding; conditions: 100 pmol lipid spots, LL-37 0.04 mg/ml, 1 h room temperature, anti-LL-37 HRP antibody, qualitative
Procedure: The lipid affinity of LL-37 was assessed using peptide-lipid overlay assays of commercially available lipid strips blotted with 100 pmol of biologically relevant lipids (Echelon Biosciences, Salt Lake City, UT), following the manufacturer’s instructions. Lipid strips were blocked with 1% fat-free milk in TBS (150 mM NaCl, 50 mM Tris-HCl, pH 7.6) for 1 h at room temperature and then incubated with LL-37 (0.04 mg/ml) dissolved in 10 mM NaHCO3, 100 mM NaCl, 5 mM sodium phosphate, pH 8, plus 1% fat-free milk in TBS for 1 h at room temperature. The lipid strips were first washed with TBS buffer three times, and then incubated overnight at 4 °C in a solution of TBS containing 1% fat free milk and the anti-LL-37 HRP-labelled antibody (Innovagen, Sweden) in a 1:2000 dilution. After being washed three times with TBS, the peptide was detected by chemoluminescence using the super-signal western femto maximum sensitivity substrate kit (Thermo Scientific, Pierce Biotechnology, Inc).

[2] = Oligomerization by size exclusion chromatography (SEC); format: physicochemical
Procedure: The oligomeric state of the peptide in the absence and presence of detergents was characterized on Superdex75 10/300 GL column (GE Healthcare) at peptide concentrations of 0.7 (0.16 mM) or 3.7 mg/ml (0.83 mM) respectively. The column was equilibrated using buffer A containing 100 mM NaCl, 10 mM NaHCO3, 5 mM sodium phosphate, pH 6.8, for the detergent free sample. SEC in the presence of detergents was performed at 0.7 mg/ml (0.16 mM) of LL-37 in buffer A plus the following detergent concentrations: 0.2% LDAO (8.7 mM), 0.05% DDM (0.98 mM), 0.2% DPC (5.6 mM). Peptides were incubated with buffer A and buffer-detergent solutions for 30 minutes before 200 μl samples were loaded onto the column. The flow rate of the column was adjusted to 0.5 ml/min and all runs were performed at room temperature. The peptide retention time was monitored at 215 nm due to the absence of Trp and Tyr residues.

[3] = Analytical ultracentrifugation (AUC), equilibrium sedimentation; format: physicochemical; conditions: 0.33 mg/ml (0.07 mM) in 50 mM phosphate buffer pH 7.2, 0.04% DDM, 18.000 rpm, 20°C, 230 nm; data not shown
From the text: Supplementa ry mat eria l to the paper:
Structural remodeling and oligomerization of human cathelicidin on membranes […]
by Enea Sancho-V aello, Patrice François, Eve-Julie Bonetti, Hauke Lilie, Sebastian Finger, Fernando Gil-Ortiz, Davi d Gil -Carton, Kornelius Zeth
Peptides, lipids and detergents
All peptides used in our study were chemically synthesized and purchased from Peptide2.0(www.peptide20.com), Proteogenix (www.ProteoGenix.fr) or Genecust (www. gen ecust.com) at purities of higher than 95%. Detergents used in this study are N - o c t yl -β-D-glucoside(Apollo Scientific limited), N-D o d e c yl -β-D-maltoside (Apollo Scientific limited), N-dodecylphosphocholine(Affymetrix) and N-dodec yl-N,N-dimethylamine-N-ox ide(Aff ymetrix ). The lipids 1,2- dioleoyl-sn-gl yc e r o -3- phosphocholine (DOPC), 1,2- dioleoyl-s n gl yc e r o -3- phosphoglycerol(DOPG) and cardiolipin (CL) were purchased from Avanti P olarLipids, Inc. (Alab aster, A L, USA). […]
Centrifugationruns were performed at 18.000 rpm and 20°C; data were collected at a wavelength of 230 nmusi ng a concentration of 0.33 mg/ml (0.07 mM) in 50 mM phosphate buffer, pH 7.2. […] The radial distribution of LL-37 at sedimentation equilibrium in the respective bufferwas linearized according to the Lamm equation 1and the slope dlnc/dr2 with c representingthe peptide concentration at the radial position r was determined experimentally. […]

E. coli K12 cells = experiment: Cryo-electron microscopy of E. coli incubated with gold-labelled peptide; format: cell-based; conditions: E. coli K12, 18 µM (80 µg/ml) labelled peptide, 37 °C, 80 minutes
Procedure: E. coli K12 cells were grown at 37 °C at 200 rpm up to an OD of 0.6, and labeled LL-37 nanogold was added to 1 ml culture to reach a final concentration of 18 µM (80 µg/ml). The cultures were further incubated at 37 °C while shaking at 300 rpm (Eppendorf Thermomixer, Hamburg, Germany). After 80 minutes, 200 μl of the sample were taken and cells were pelleted at 3000*g for 10 min at 4 °C. The cell pellet was resuspended using 15 μl of culture solution in order to concentrate the sample and reach a sufficiently high cell density for the visualization in the microscope.

[4] = Cryo-EM of small unilamellar lipid vesicles incubated with gold-labelled peptide; conditions: DOPC:DOPG (3:7) SUVs, peptide:lipid 1:250, 15 minutes
Procedure: For the labeling of LL-37 with 1.4 nm nanogold particles (Nanoprobes, Inc), 200 µM of the S37C peptide were reduced using 5 mM of Dithiothreitol (DTT) in the presence of 5 mM EDTA and 100 mM sodium phosphate, pH 7, at room temperature for 1 hour while shaking. The excess of DTT was removed using a 3 kD-cutoff ultrafiltration cell (Amicon, Millipore). Nanogold at 6 nmol concentration was incubated with the peptide at room temperature for 2 hours while shaking. To remove the excess of nanogold, the mixture was loaded onto a Superdex 75 10/300 GL column (GE Healthcare) with 150 mM NaCl and 20 mM sodium phosphate, pH 7. The fractions containing the labeled peptide were concentrated using a 3 kD-cutoff (Amicon, Millipore) ultrafiltration device. The DOPC:DOPG (3:7) SUVs (small unilamellar vesicles) were prepared using a mini-extruder (Avanti Polar Lipids, Inc). Their size and homogeneity was checked using dynamic light scattering (DLS). DOPC:DOPG vesicles were treated with nanogold labeled LL-37 (ratio of peptide to lipid 1:250).

CC[C@H](C)[C@H](NC(=O)[C@H](CCCCN)NC(=O)[C@H](CCC(=O)O)NC(=O)[C@H](CCCCN)NC(=O)[C@H](CO)NC(=O)[C@H](CCCCN)NC(=O)[C@H](CCCNC(=N)N)NC(=O)[C@H](Cc1ccccc1)NC(=O)[C@H](Cc1ccccc1)NC(=O)[C@H](CC(=O)O)NC(=O)CNC(=O)[C@H](CC(C)C)NC(=O)[C@@H](N)CC(C)C)C(=O)NCC(=O)N[C@@H](CCCCN)C(=O)N[C@@H](CCC(=O)O)C(=O)N[C@@H](Cc1ccccc1)C(=O)N[C@@H](CCCCN)C(=O)N[C@@H](CCCNC(=N)N)C(=O)N[C@H](C(=O)N[C@H](C(=O)N[C@@H](CCC(N)=O)C(=O)N[C@@H](CCCNC(=N)N)C(=O)N[C@H](C(=O)N[C@@H](CCCCN)C(=O)N[C@@H](CC(=O)O)C(=O)N[C@@H](Cc1ccccc1)C(=O)N[C@@H](CC(C)C)C(=O)N[C@@H](CCCNC(=N)N)C(=O)N[C@@H](CC(N)=O)C(=O)N[C@@H](CC(C)C)C(=O)N[C@H](C(=O)N1CCC[C@H]1C(=O)N[C@@H](CCCNC(=N)N)C(=O)N[C@H](C(=O)N[C@@H](CCC(=O)O)C(=O)N[C@@H](CO)C(=O)O)[C@@H](C)O)C(C)C)[C@@H](C)CC)C(C)C)[C@@H](C)CC [LL-37]
Interaction with PS (lipid overlay) ([1]; chemoluminescence): strong interactions
Binding to PC (lipid overlay) [1]: does not bind
Interaction with CL (lipid overlay) [1]: strong interactions
Interaction with PE (lipid overlay) [1]: strong interactions
Interaction with PG (lipid overlay) [1]: strong interactions
Interaction with PI (lipid overlay) [1]: do not interact
Interaction with PI-4 (lipid overlay) [1]: do not interact
Interaction with PI-4,5 (lipid overlay) [1]: do not interact
Interaction with phosphatidic-acid (lipid overlay) [1]: strong interactions
Interaction with sulfatide (lipid overlay) [1]: strong interaction
Recognition of PI-3, 4, 5 (lipid overlay) [1]: recognized
Oligomeric state in SEC, dominating species ([2]; 0.16 mM (0.7 mg/ml) peptide, no detergent, Superdex75 10/300 GL, 100 mM NaCl, 10 mM NaHCO3, 5 mM sodium phosphate pH 6.8, room temperature, 215 nm): monomeric
Oligomeric state in SEC in the presence of detergents ([2]; 0.16 mM peptide with 0.2% LDAO, 0.2% DPC or 0.05% DDM, 30 min pre-incubation, buffer pH 6.8, room temperature): tetramers or hexamers
Oligomeric state in SEC (retention time range) ([2]; 0.83 mM (3.7 mg/ml) peptide, no detergent, Superdex75 10/300 GL, buffer pH 6.8, room temperature, 215 nm): tetramer or hexamer
Molecular weight in SEC in the presence of detergents ([2]; in the presence of DDM, DPC and LDAO): around 30 kD
Molecular weight by AUC in DDM [3]: ~ 28 kD

LLGDFFRKSKEKIGKEFKRIVQRIKDF [LL-28]
MIC against E. coli in the presence of detergent (E. coli): 6 µg/mL

gold-labelled LL-37: S37C mutant of LL-37 labeled at the C-terminus with 1.4 nm nanogold particles (LLGDFFRKSKEKIGKEFKRIVQRIKDFLRNLVPRTEC; also: labeled at the C-terminus with 1.4 nm nanogold particles, attachment not given here; UniProt P49913 134-170, looked up, variant S37C)
Effect on E. coli membranes (cryo-EM) (E. coli K12 cells): clear perforation of the outer but not of the inner membrane
Membrane perturbation of lipid vesicles (cryo-EM) [4]: no significant membrane perturbation
